Data from PubChem BioAssay AID256 (DTP/NCI, 2004).
Inconclusive results and toxic doses are left out.

Test system: CD2F1 mice, L1210 leukemia ip, survival T/C
Assay: NCI In Vivo Anticancer Drug Screen. Data for tumor model L1210 Leukemia (intraperitoneal) in CD2F1 (CDF1) mice
Details: higher = longer survival
In short: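 Implant tumor; dose compound or vehicle; measure endpoint in both groups; report treated divided by control.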

[1] = endpoint: mean survival time, dose: 100.0 mg/kg/injection, schedule: Q01DX001 (ip), vehicle: saline with Tween-80
[2] = endpoint: mean survival time, dose: 100.0 mg/kg/injection, schedule: Q01DX009 (ip), vehicle: saline with Tween-80
[3] = endpoint: mean survival time, dose: 200.0 mg/kg/injection, schedule: Q01DX009 (ip), vehicle: saline with Tween-80

CCn1cnc2c(SC3CCCC3)ncnc21
T/C (endpoint: mean survival time, dose: 100.0 mg/kg/injection, schedule: Q01DX001 (ip), vehicle: carboxymethylcellulose (CMC)): 112 % of control | T/C (endpoint: mean survival time, dose: 200.0 mg/kg/injection, schedule: Q01DX001 (ip), vehicle: carboxymethylcellulose (CMC)): 108 % of control | T/C (endpoint: mean survival time, dose: 400.0 mg/kg/injection, schedule: Q01DX001 (ip), vehicle: carboxymethylcellulose (CMC)): 121 % of control

CCCCOC(=O)/C=C(\CC(=O)OCCCC)C(=O)OCCCC
T/C [1]: 97 % of control | T/C (endpoint: mean survival time, dose: 200.0 mg/kg/injection, schedule: Q01DX001 (ip), vehicle: saline with Tween-80): 97 % of control | T/C (endpoint: mean survival time, dose: 400.0 mg/kg/injection, schedule: Q01DX001 (ip), vehicle: saline with Tween-80): 103 % of control

C=C1OC(n2cnc3c(N)ncnc32)C(O)C1O (stereo not drawn)
T/C (endpoint: mean survival time, dose: 100.0 mg/kg/injection, schedule: Q01DX001 (ip), vehicle: saline): 98 % of control | T/C (endpoint: mean survival time, dose: 200.0 mg/kg/injection, schedule: Q01DX001 (ip), vehicle: saline): 101 % of control | T/C (endpoint: mean survival time, dose: 400.0 mg/kg/injection, schedule: Q01DX001 (ip), vehicle: saline): 98 % of control

Clc1nc2ccccc2c2ccccc12
T/C (endpoint: mean survival time, dose: 50.0 mg/kg/injection, schedule: Q01DX009 (ip), vehicle: saline with Tween-80): 97 % of control | T/C [2]: 94 % of control | T/C (endpoint: mean survival time, dose: 100.0 mg/kg/injection, schedule: Q04DX003 (ip), vehicle: saline with Tween-80): 109 % of control | T/C [3]: 92 % of control | T/C (endpoint: mean survival time, dose: 200.0 mg/kg/injection, schedule: Q04DX003 (ip), vehicle: saline with Tween-80): 111 % of control

CN(Cc1ccc(C#N)cc1)N=Nc1ccc(C(=O)O)cc1
T/C (endpoint: mean survival time, dose: 25.0 mg/kg/injection, schedule: Q01DX009 (ip), vehicle: other): 106 % of control | T/C (endpoint: mean survival time, dose: 50.0 mg/kg/injection, schedule: Q01DX009 (ip), vehicle: other): 87 % of control | T/C (endpoint: mean survival time, dose: 100.0 mg/kg/injection, schedule: Q01DX009 (ip), vehicle: other): 106 % of control | T/C (endpoint: mean survival time, dose: 200.0 mg/kg/injection, schedule: Q01DX009 (ip), vehicle: other): 102 % of control | T/C (endpoint: mean survival time, dose: 400.0 mg/kg/injection, schedule: Q01DX009 (ip), vehicle: other): 120 % of control

CCC[As](=O)(O)CC[As](=O)(O)CCC
T/C (endpoint: mean survival time, dose: 25.0 mg/kg/injection, schedule: Q01DX001 (ip), vehicle: saline with Tween-80): 95 % of control | T/C (endpoint: mean survival time, dose: 50.0 mg/kg/injection, schedule: Q01DX001 (ip), vehicle: saline with Tween-80): 95 % of control | T/C [1]: 103 % of control

NC(Cc1ccccc1)C(=O)OCN1C(=O)C2C3C=CC(C2C1=O)C1C2C(=O)N(COC(=O)C(N)Cc4ccccc4)C(=O)C2C31 (stereo not drawn)
T/C (endpoint: median survival time, dose: 21.6 mg/kg/injection, schedule: Q01DX009 (ip), vehicle: water): 116 % of control | T/C (endpoint: median survival time, dose: 36.0 mg/kg/injection, schedule: Q01DX009 (ip), vehicle: water): 117 % of control | T/C (endpoint: median survival time, dose: 100.0 mg/kg/injection, schedule: Q01DX009 (ip), vehicle: water): 188 % of control

CCOc1ccc2ccccc2c1C
T/C (endpoint: mean survival time, dose: 100.0 mg/kg/injection, schedule: Q04DX002 (ip), vehicle: other): 120 % of control | T/C (endpoint: mean survival time, dose: 200.0 mg/kg/injection, schedule: Q04DX002 (ip), vehicle: other): 112 % of control | T/C (endpoint: mean survival time, dose: 400.0 mg/kg/injection, schedule: Q04DX002 (ip), vehicle: other): 104 % of control

CN(C)c1ccc(C(=C2C=CC(=[N+](C)C)C=C2)c2ccc(N(C)C)cc2)cc1 (tested in a mixture with another compound)
T/C (endpoint: mean survival time, dose: 0.15 mg/kg/injection, schedule: Q01DX009 (ip), vehicle: saline with Tween-80): 110 % of control | T/C (endpoint: mean survival time, dose: 0.31 mg/kg/injection, schedule: Q01DX009 (ip), vehicle: saline with Tween-80): 100 % of control | T/C (endpoint: mean survival time, dose: 0.31 mg/kg/injection, schedule: Q01DX009 (ip), vehicle: suspension in saline): 97 % of control | T/C (endpoint: mean survival time, dose: 0.62 mg/kg/injection, schedule: Q01DX009 (ip), vehicle: saline with Tween-80): 105 % of control | T/C (endpoint: mean survival time, dose: 0.62 mg/kg/injection, schedule: Q01DX009 (ip), vehicle: suspension in saline): 106 % of control | T/C (endpoint: mean survival time, dose: 1.25 mg/kg/injection, schedule: Q01DX009 (ip), vehicle: saline with Tween-80): 113 % of control | T/C (endpoint: mean survival time, dose: 1.25 mg/kg/injection, schedule: Q01DX009 (ip), vehicle: suspension in saline): 101 % of control | T/C (endpoint: mean survival time, dose: 2.5 mg/kg/injection, schedule: Q01DX009 (ip), vehicle: saline with Tween-80): 117 % of control | T/C (endpoint: mean survival time, dose: 2.5 mg/kg/injection, schedule: Q01DX009 (ip), vehicle: suspension in saline): 106 % of control

CC(=O)OCc1ccc2ccccc2c1
T/C [2]: 100 % of control | T/C [3]: 102 % of control | T/C (endpoint: mean survival time, dose: 400.0 mg/kg/injection, schedule: Q01DX009 (ip), vehicle: saline with Tween-80): 118 % of control

Cc1ccc2c(c1)-c1[nH]c3ccccc3c1CS2
T/C (endpoint: mean survival time, dose: 50.0 mg/kg/injection, schedule: Q01DX009 (ip), vehicle: Klucel (hydroxypropylcellulose) (HPC)): 109 % of control | T/C (endpoint: mean survival time, dose: 100.0 mg/kg/injection, schedule: Q01DX009 (ip), vehicle: Klucel (hydroxypropylcellulose) (HPC)): 107 % of control | T/C (endpoint: mean survival time, dose: 200.0 mg/kg/injection, schedule: Q01DX009 (ip), vehicle: Klucel (hydroxypropylcellulose) (HPC)): 107 % of control
